Results taken from publication PMC4767259 (Journal of nuclear medicine : official publication, Society …, 2015).

Legend:
[1] = tested on: leg muscles (lateral gastrocnemius) and systemic muscles (spinotrapezius); assay: 18F-FDG uptake PET imaging of muscles, SUV time-activity curve slope analysis; format: in vivo, CD IGS rats; settings: SF group: insulin 3.39-48.48 IU/kg into tail vein, n = 3, mean ± SD
[2] = intraarterial (left femoral artery) intervention, insulin 0.34-0.38 IU/kg, rats

Insulin
baseline of the 18F-FDG uptake SUVs [1]: 0.7547 ± 0.1208 | Adverse events [2]: No adverse events were observed
